Legend:
[1] = biological target: T1, bovine cardiac myofibrils (Bos taurus, UniProt Q9BE39); experiment: Skinned bovine cardiac myofibril ATPase assay (PK/LDH-coupled); type: biochemical; conditions: bovine cardiac myofibril ATPase activity; Ca2+ for 50% or 75% activation
T1 construct: full-length cardiac myosin in the context of the native sarcomere; from tissue; host or cells: bovine cardiac left ventricular tissue, detergent-skinned myofibrils
Protocol: To evaluate the effect of the compound 5-(3,4-difluorobenzyl)-8-((1r,4r)-4-methylcyclohexyl)-6,9-dioxo-2,5,8-triazaspiro[3.5]nonane-2-carbaldehyde on the ATPase activity of full-length cardiac myosin in the context of the native sarcomere, skinned myofibril assays were performed. Bovine cardiac myofibrils were obtained by homogenizing bovine cardiac left ventricular tissue in the presence of a detergent such as triton X-100. Such treatment removes membranes and a majority of the soluble cytoplasmic proteins but leaves intact the cardiac sarcomeric acto-myosin apparatus. Myofibril preparations retain the ability to hydrolyze ATP in a Ca^2+ regulated manner. ATPase activities of such myofibril preparations in the presence and absence of the compound 5-(3,4-difluorobenzyl)-8-((1r,4r)-4-methylcyclohexyl)-6,9-dioxo-2,5,8-triazaspiro[3.5]nonane-2-carbaldehyde was assayed at Ca^2+ concentrations activating to a defined fraction of the maximal rate (i.e., […], 75%). The compound 5-(3,4-difluorobenzyl)-8-((1r,4r)-4-methylcyclohexyl)-6,9-dioxo-2,5, 8-triazaspiro [3.5]nonane-2-carbaldehyde was assessed for its ability to inhibit the steady-state ATPase activity of bovine cardiac myofibrils using pyruvate kinase and lactate dehydrogenase (PK/LDH)-coupled enzyme system. This assay regenerates myosin-produced ADP into ATP by oxidizing NADH, producing an absorbance change at 340 nm. Prior to testing this compound, the bovine cardiac myofibrils were assessed for their calcium responsiveness and the calcium concentration that achieves either a 50% (pCa50) or 75% (pCa75) activation of the myofibril system was chosen as the final condition for assessing the inhibitory activity of this compound. All enzymatic activity was measured in a buffered solution containing 12 mM PIPES (piperazine-N,N′-bis(2-ethanesulfonic acid), 2 mM magnesium chloride at pH 6.8 (PM 12 buffer). Final assay conditions were 1 mg/mL of bovine cardiac myofibrils, 4 U/mL pyruvate kinase, 6 U/mL lactate dehydrogenase, 50 μM ATP, 0.1 mg/mL BSA (bovine serum albumin), 10 ppm antifoam, 1 mM DTT, 0.5 mM NADH, 1.5 mM PEP, 0.6 mM EGTA, and an amount of CaCl2) sufficient to achieve either 50% or 75% activation of the myofibril ATPase activity. The compound tested was prepared in accordance with the synthetic procedures described herein.

[2] = Rat single dose pharmacokinetics; type: in vivo; conditions: male, plasma, iv, Sprague Dawley rats; for Vd: read-out: Vss
Protocol: Male Sprague Dawley rats were obtained from Zhejiang Vital River Laboratory Animal Technology Co., Ltd. The animals in IV group had free access to water and food. The animals in PO group were fasted overnight before dosing and provided with food 2 hours post dosing. The IV dose solution was prepared in 10% DMA/50% PG/40% HPOCD solution (40% w/v aqueous HPOCD) at a concentration of 1 mg/mL. The oral dosing suspension was prepared by suspending Test Article in 0.5% HPMC/0.1% Tween 80 in water at a concentration 0.2 mg/mL. Concentrations of IV and PO doses were measured at the end of the study. Pharmacokinetic parameters were calculated using the nominal dose values if the measured values were within 20% of the nominal values. Three rats were dosed IV via a bolus injection via caudal vein. Three rats per dose group were dosed by oral gavage. Blood samples were collected from the jugular vein cannula at predose, 5 (IV only),15, 30 minutes, and 1, 2, 4, 6, and 24 hours post-dose. Blood volumes were replaced with an equal amount of sterile 0.9% saline. Blood samples were centrifuged and the collected plasma was stored at −80° C. for subsequent analysis. Plasma samples were analyzed for Test Article concentrations using a LC/MS/MS method. Briefly, a 50 μL aliquot of each plasma sample was mixed with 100 μL of acetonitrile that contained an internal standard. The mixture was vortexed and centrifuged. Ten (10) μL of the resulting solution was injected onto a reverse-phase C18 column and the resultant peaks detected on a LC/MS/MS equipped with a turbo ionspray ionization source. Sample concentrations below the limit of quantification (BLQ) were treated as zero for pharmacokinetic calculations. Pharmacokinetic parameters were estimated from individual animals using noncompartmental analysis of the concentration-time data (Phoenix WinNonLin software, version 64; Pharsight, Mountain View, CA). The elimination rate constant (k) was calculated as the absolute value of the slope of the linear regression of logarithm (log) of the concentration versus time for the last three data points of the concentration-time profiles. Apparent elimination half-life (t1/2) values were calculated as In(2)/k. Area under the concentration-time curve (AUC) values were estimated using linear trapezoidal method. AUC values were calculated from the dosing time to the last measurable concentration. AUC∞ values were calculated as the sum of the corresponding AUC and the ratio of the last detectable concentration divided by k (AUCt-∞). Plasma clearance (CL) was calculated from Dose/AUC∞. Mean resident time (MRT) was estimated by moment analysis. Volume of distribution at steady state (Vss) was calculated from MRT∞×CL. Maximum concentration (Cmax) and time to reach Cmax (tmax) were recorded as observed. Bioavailability was calculated from the ratio of dose normalized AUC∞,po of individual rats/mean dAUC∞,iv×100% where dAUC was the dose normalized AUC value. Compounds tested were prepared in accordance with the synthetic procedures described herein.

T1 sequence (Q9BE39 whole entry): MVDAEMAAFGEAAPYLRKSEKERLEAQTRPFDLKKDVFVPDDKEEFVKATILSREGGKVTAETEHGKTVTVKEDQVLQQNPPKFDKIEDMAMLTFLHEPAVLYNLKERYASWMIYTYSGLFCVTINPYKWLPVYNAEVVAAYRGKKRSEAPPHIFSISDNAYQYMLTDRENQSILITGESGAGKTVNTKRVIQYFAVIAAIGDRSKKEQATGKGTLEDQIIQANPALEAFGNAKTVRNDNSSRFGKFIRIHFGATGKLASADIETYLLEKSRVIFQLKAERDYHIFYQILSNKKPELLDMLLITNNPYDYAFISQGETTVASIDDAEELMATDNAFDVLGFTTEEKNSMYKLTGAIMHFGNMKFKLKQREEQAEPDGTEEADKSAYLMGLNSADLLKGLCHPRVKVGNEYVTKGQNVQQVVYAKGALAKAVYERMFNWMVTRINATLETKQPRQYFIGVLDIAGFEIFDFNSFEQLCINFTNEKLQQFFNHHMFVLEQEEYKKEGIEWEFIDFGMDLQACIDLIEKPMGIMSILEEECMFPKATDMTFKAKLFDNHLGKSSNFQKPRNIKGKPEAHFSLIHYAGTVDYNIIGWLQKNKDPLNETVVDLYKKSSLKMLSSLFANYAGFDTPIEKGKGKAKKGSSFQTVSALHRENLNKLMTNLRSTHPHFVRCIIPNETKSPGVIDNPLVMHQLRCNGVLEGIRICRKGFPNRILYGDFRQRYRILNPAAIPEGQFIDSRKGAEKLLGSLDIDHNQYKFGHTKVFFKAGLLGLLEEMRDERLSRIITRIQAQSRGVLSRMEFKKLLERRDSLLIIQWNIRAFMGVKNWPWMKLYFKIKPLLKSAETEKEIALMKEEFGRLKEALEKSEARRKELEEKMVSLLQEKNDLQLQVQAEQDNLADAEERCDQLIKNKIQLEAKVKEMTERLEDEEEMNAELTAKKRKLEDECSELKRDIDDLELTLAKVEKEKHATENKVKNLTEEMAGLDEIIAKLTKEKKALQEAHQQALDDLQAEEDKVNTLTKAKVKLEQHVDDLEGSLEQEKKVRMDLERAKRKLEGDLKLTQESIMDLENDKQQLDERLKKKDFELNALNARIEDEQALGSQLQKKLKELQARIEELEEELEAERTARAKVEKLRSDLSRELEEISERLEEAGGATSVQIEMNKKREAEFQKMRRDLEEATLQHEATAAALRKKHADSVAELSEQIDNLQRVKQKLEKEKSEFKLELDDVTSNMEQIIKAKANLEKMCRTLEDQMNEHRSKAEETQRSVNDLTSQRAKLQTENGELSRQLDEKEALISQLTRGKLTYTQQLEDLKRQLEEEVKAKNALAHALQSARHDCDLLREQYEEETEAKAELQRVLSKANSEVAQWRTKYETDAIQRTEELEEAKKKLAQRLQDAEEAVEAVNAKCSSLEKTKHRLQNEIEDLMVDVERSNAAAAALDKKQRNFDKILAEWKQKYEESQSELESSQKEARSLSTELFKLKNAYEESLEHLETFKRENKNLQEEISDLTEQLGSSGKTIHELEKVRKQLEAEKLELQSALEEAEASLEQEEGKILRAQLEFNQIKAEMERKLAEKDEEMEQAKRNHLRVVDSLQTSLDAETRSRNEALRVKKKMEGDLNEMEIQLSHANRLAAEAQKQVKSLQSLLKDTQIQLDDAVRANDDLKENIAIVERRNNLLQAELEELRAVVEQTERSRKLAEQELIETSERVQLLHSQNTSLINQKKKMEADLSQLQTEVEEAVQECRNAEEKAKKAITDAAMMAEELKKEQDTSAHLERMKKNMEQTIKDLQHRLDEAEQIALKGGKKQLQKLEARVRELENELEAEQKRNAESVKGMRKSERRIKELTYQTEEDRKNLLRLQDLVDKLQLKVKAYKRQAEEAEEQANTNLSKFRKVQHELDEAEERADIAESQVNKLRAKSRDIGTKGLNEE
T1 sequence (P85100 whole entry partner): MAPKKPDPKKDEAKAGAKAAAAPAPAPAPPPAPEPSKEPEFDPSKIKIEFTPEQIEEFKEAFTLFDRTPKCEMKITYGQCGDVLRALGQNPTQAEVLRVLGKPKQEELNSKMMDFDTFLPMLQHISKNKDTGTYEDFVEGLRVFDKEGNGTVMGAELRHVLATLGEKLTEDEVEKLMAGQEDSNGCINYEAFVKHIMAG
T1 sequence (Q3SZE5 whole entry partner): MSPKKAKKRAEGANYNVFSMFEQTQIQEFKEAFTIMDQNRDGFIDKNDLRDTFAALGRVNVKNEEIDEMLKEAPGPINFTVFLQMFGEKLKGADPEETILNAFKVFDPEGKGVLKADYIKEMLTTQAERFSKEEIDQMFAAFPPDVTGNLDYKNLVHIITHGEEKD

Row | CDMF IC15 [1] | clearance [2] | half-life [2] | Vd [2] | SMILES
1 | 1800 nM | 29.6 mL/min/kg | 6.48 h | 15.1 L/kg | O=CN1CC2(C1)C(=O)N(c1ccc(F)cc1F)CC(=O)N2Cc1ccc(Cl)cc1 [Comparator A, 5-(4-chlorobenzyl)-8-(2,4-difluorophenyl)-6,9-dioxo-2,5,8-triazaspiro[3.5]nonane-2-carbaldehyde]
2 | 1100 nM | 20.2 mL/min/kg | 3.3 h | 5.2 L/kg | O=C1[C@H](C2COC2)N(Cc2ccc(C(F)(F)F)cc2)C(=O)CN1c1ncc(Cl)cc1F [Comparator C, (S)-1-(5-chloro-3-fluoropyridin-2-yl)-3-(oxetan-3-yl)-4-(4-(trifluoromethyl)benzyl)piperazine-2,5-dione, reference compound]
3 | 1100 nM | 8.23 mL/min/kg | 4.84 h | 2.98 L/kg | CC(=O)N1CC2(C1)C(=O)N(c1ccc(C#N)cc1F)CC(=O)N2Cc1ccc(C(F)(F)F)cc1 [Comparator D, 4-(2-acetyl-6,9-dioxo-5-(4-(trifluoromethyl)benzyl)-2,5,8-triazaspiro[3.5]nonan-8-yl)-3-fluorobenzonitrile]
4 | 1300 nM | 18.8 mL/min/kg | 5.4 h | 8.23 L/kg | O=CN1CC2(C1)C(=O)N([C@H]1CC[C@H](C(F)F)CC1)CC(=O)N2Cc1ccc(C(F)(F)F)cc1 [Comparator E, 8-((1r,4r)-4-(difluoromethyl)cyclohexyl)-6,9-dioxo-5-(4-(trifluoromethyl)benzyl)-2,5,8-triazaspiro[3.5]nonane-2-carbaldehyde]
5 | 1500 nM | 52.6 mL/min/kg | 3.34 h | 13 L/kg | C[C@H]1CC[C@H](N2CC(=O)N(Cc3ccc(F)c(F)c3)C3(CN(C=O)C3)C2=O)CC1 [Compound 1, 5-(3,4-difluorobenzyl)-8-((1r,4r)-4-methylcyclohexyl)-6,9-dioxo-2,5,8-triazaspiro[3.5]nonane-2-carbaldehyde]
